From patent US20250387359A1, “COMPOUNDS AND METHODS FOR THE TREATMENT OF PARASITIC INFECTIONS” (THE BOARD OF TRUSTEES OF THE UNIVERSITY OF ILLINOIS, priority 2019, published 2025)
Read-outs that look alike come from different tables or passages of the source.

Tests used:
HCT-8 cells = assay: Compound cytotoxicity assay (WST-1) in HCT-8 cells; format: cell-based, human
Protocol: Compound cytotoxicity assay. […] A colorimetric assay using the cell proliferation reagent WST-1 (Roche, USA) for the quantification of cell viability was performed. […] When the cells were confluent, the old medium was replaced with fresh medium with or without varying concentrations of chemical compound. After 24 h of culture, 10 μl of the cell proliferation reagent WST-1, (for quantification of cell viability) was added to each well, mixed and the plates incubated for 1 h at 37 C with 5% CO2 in the dark. […] Molecular Devices, USA).

[1] = biological target: T1, recombinant CpLDH protein (Cryptosporidium parvum, UniProt Q9GT92, F198L/K295E/R251K); assay: biochemical; format: biochemical; settings: 20 μM compound; 10 mM pyruvate, 1 mM NADH
T1 sequence (Q9GT92 whole entry F198L/K295E/R251K): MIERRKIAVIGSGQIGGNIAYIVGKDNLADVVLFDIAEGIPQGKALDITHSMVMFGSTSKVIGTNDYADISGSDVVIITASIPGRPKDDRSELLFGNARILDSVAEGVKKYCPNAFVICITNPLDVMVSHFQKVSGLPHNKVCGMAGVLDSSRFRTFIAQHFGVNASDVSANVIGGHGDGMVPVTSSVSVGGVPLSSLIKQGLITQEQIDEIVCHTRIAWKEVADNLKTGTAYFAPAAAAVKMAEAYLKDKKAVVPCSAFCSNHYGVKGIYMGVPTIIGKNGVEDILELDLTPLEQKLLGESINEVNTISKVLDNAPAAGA
Protocol: (§1) Biochemical assays. The coding sequence of CpLDH was cloned from cDNA prepared from the AUCP-1 isolate of C. parvum, and the His-tagged CpLDH recombinant protein expressed in Escherichia coli, and purified in native form essentially as previously described (Int. J. Parasitol. 2017; 47(13), 867-874). Briefly, cDNA was prepared from total RNA extracted from the AUCP-1 isolate of C. parvum, and the coding sequencing of CpLDH (Genebank accession number AF274310.1) was PCR-amplified from the cDNA using a primer pair with a XhoI restriction site and a BamHI site. The PCR amplicon was cloned at the XhoI/BamHI site of the pET15b expression vector in-frame with the hexahistidine (His-tag) at the N-terminal and sequenced to confirm identity. The recombinant expression vector was transformed into protein expression E. coli BL21-CodonPlus-DE3-RIL (Stratagene). Transformed E. coli was cultured at 37° C. in Luria broth medium (supplemented with 100 μg/ml ampicillin and 34 μg/ml chloramphenicol) to an A600 of 0.8 followed by addition of 1 mM isopropyl-β-d-thiogalactopyranoside to induce protein expression. The expression E. coli was harvested and lysed under native conditions by sonicating in lysis buffer (50 mM NaH2PO4, 300 mM NaCl, 10 mM Imidazole, pH 8.0) containing a 1× EDTA-free protease inhibitor cocktail, 600 units benzonase and 30 kU lysozyme (EMD Millipore). The lysate was clarified by centrifugation and the His-tagged recombinant protein purified under native conditions by nickel-affinity chromatography according to the manufacturer's instructions (Novagen). The wash buffer used contained 50 mM NaH2PO4, 300 mM NaCl and 20 mM Imidazole, pH 8.0, while the elution buffer was composed of 50 mM NaH2PO4, 300 mM NaCl, 250 mM Imidazole, pH 8.0. The eluate was dialyzed using a buffer containing 5 mM Hepes-KOH (pH 7.8) and 0.5 mM DTT. The purity of the recombinant protein was determined by SDS/PAGE, and the concentration measured using a Qubit 3.0 fluorometer (Life technologies). […] On the other hand, the catalytic activity of CpLDH recombinant protein for the oxidation of lactate to pyruvate was determined by measuring the change in optical density of a 100 μl reaction mixture containing 100 mM lactate, 1 mM NAD^+, 100 mM Tris, pH 9.2, with varying concentrations of CpLDH recombinant protein at 25° C. […] In all assays, reaction mixtures without recombinant CpLDH protein were included as negative controls. All assays were performed in triplicate and repeated at least thrice. The change in optical density was measured every 15 seconds for a total of 2 minutes using a Spectra Max 384 Plus plate reader (Molecular Devices) at a wavelength of 340 nm.
Screening compounds for inhibitory activity against CpLDH. The chemical compounds were obtained from the National Cancer Institute/Developmental Therapeutics Program Open Chemical Repository. They consisted of a diverse set of compounds (n=27) reported previously (Int J Parasitol Drugs Drug Resist. 2016; 6(1), 44-53), and a Mechanistic Set IV compounds (n=800). The compounds were reconstituted in dimethyl sulfoxide (DMSO) as stock solutions. Just before use, aliquots of the stock solutions were diluted in sterile distilled water to generate working solutions, such that the final amount of DMSO added to the reaction mixtures was less than 1% (V/V). The compounds were tested for their inhibitory effect against the enzymatic activity of recombinant His-tagged CpLDH for catalyzing the reduction of pyruvate to lactate. […] Control reactions without recombinant CpLDH protein were included. Reactions were performed in triplicate and repeated at least thrice. The change in optical density was measured every 15 seconds for a total of 2 minutes using a Spectra Max 384 Plus plate reader (Molecular Devices) at a wavelength of 340 nm.

[2] = biological target: T1, recombinant CpLDH protein; settings: reported by Zhang et al., PLoS Pathog. 2015; cited from earlier work
[3] = biological target: T1, recombinant CpLDH protein; assay: CpLDH enzyme kinetics on substrates and co-factors; format: biochemical; settings: for Km: pyruvate/NADH: reduction of pyruvate to lactate, lactate/NAD+: oxidation of lactate to pyruvate, 25° C.; for Kcat / Vmax: pyruvate/NADH: reduction, lactate/NAD+: oxidation
Protocol: as §1

[4] = HCT-8 cells, 24 h, WST-1, read-out: CYTOTOXICITY IC50

| Compound | IC50 (HCT-8 cells) | effect on catalytic activity of recombinant CpLDH [1] | also measured |
| --- | --- | --- | --- |
| O=C1/C(=C/c2ccccc2)CN(C(=O)/C=C/c2ccccc2)C/C1=C\c1ccccc1 [NSC638634] | 157 µM |  |  |
| O=S(=O)(O)c1cc(N=Nc2cc(S(=O)(=O)O)c3cccnc3c2O)ccc1/C=C/c1ccc(N=Nc2cc(S(=O)(=O)O)c3cccnc3c2O)cc1S(=O)(=O)O [NSC638352] | 116 µM | significant (P<0.05) inhibitory effect |  |
| O=C(CC(=O)C(F)(F)F)c1csc2ccccc12 [NSC80396] | 91.9 µM |  |  |
| CC(O)C(=O)O (centres unmarked) [Lactate, lactate] |  |  | Kcat [2]: (0.66)* s^−1; Km [2]: 10800 µM; Vmax [2]: (0.53)* nmol^−1 · μg^−1 · min^−1; Km ([3]; read-out: Km): 39600 µM; Kcat [3]: 0.07 s⁻¹; Vmax [3]: 0.04 nmol⁻¹ µg⁻¹ min⁻¹ |
| O=[N+]([O-])c1cccc2c(N=Nc3ccc4ccccc4c3O)c(O)cc(S(=O)(=O)O)c12.[Na+] [NSC85561] | 103 µM | significant (P<0.05) inhibitory effect |  |
| CCOC(C)C(C=NNC(N)=S)=NNC(N)=S (centres unmarked) [NSC82116] | 118 µM | significant (P<0.05) inhibitory effect |  |
| NC(=O)c1ccc[n+]([C@@H]2O[C@H](COP(=O)([O-])OP(=O)(O)OC[C@H]3O[C@@H](n4cnc5c(N)ncnc54)[C@H](O)[C@@H]3O)[C@@H](O)[C@H]2O)c1 [NAD^+] |  |  | Kcat [2]: (0.70)* s^−1; Km [2]: 62 µM; Vmax [2]: (0.56)* nmol^−1 · μg^−1 · min^−1; Km ([3]; read-out: Km): 56 µM; Kcat [3]: 0.11 s⁻¹; Vmax [3]: 0.07 nmol⁻¹ µg⁻¹ min⁻¹ |
| CC(O)CCC(=O)c1ccoc1 (centres unmarked) [NSC349438] | 93.9 µM | significant (P<0.05) inhibitory effect |  |
| COc1ccc(/C=C/C(=O)Oc2cc(O)cc(O)c2)cc1 [NSC175296] | 156 µM |  |  |
| Cc1cc2c(C(C)C)c(O)c(O)c(C=O)c2c(O)c1-c1c(C)cc2c(C(C)C)c(O)c(O)c(C=O)c2c1O [NSC56817] |  | significant (P<0.05) inhibitory effect | IC50 (HCT-8 cells; [4]): 64.2 µM |
| CC1=C(CCC(=O)O)c2cc3nc(cc4[nH]c(cc4C)cc4[nH]c(cc1n2)cc4C)C(C)=C3CCC(=O)O [NSC18298] | 81.9 µM | significant (P<0.05) inhibitory effect |  |
| Cc1cc(N(CCCl)CCCl)ccc1/C=N/NC(=O)Cc1cc(=O)oc2cc(O)ccc12 [NSC79688] |  | significant (P<0.05) inhibitory effect | IC50 (HCT-8 cells; [4]): 145 µM |
| CC(=O)Nc1ccc(-c2nc3ccccc3s2)cc1 [NSC33006] | 87.3 µM | significant (P<0.05) inhibitory effect |  |
| O=C(O)[C@@H]1[C@H](C(=O)O)[C@]2(Cl)C(Cl)=C(Cl)[C@@]1(Cl)C2(Cl)Cl [NSC22225] | 96.8 µM | significantly (P<0.05) inhibited |  |
| [Cl][Cd][Cl] [NSC51148] | 39.6 µM | significant (P<0.05) inhibitory effect |  |
| O=S(=O)(O)c1cc(N=[N+]([O-])c2cc(S(=O)(=O)O)c3ccccc3c2)cc2ccccc12 [NSC37031] | 333 µM | significantly (P<0.05) inhibited |  |
| CC(=O)C(=O)O [Pyruvate, pyruvate] |  |  | Km [3]: 731 µM |
| Cc1ccc2c(sc(-c3ccc4c(c3)sc(-c3ccc(N(C)C)cc3)[n+]4C)[n+]2C)c1S(=O)(=O)[O-].[Cl-] [NSC71948] | 106 µM | significant (P<0.05) inhibitory effect |  |
| Cc1cc2c(c3oc(C4(C)OC4C4OC4C)cc(=O)c13)C(=O)c1c(O)c(C3CC(C)(N(C)C)C(O)C(C)O3)cc(C3CC(N(C)C)C(O)C(C)O3)c1C2=O (centres unmarked) [NSC70929] | 181 µM | significant (P<0.05) inhibitory effect |  |
| COC(=O)C1=C(C(=O)OC)SC2(S1)C(C(=O)OC)=C(C(=O)OC)Sc1c2ssc1=O [NSC686349] | 283 µM | significant (P<0.05) inhibitory effect |  |
| NC(=O)C1=CN([C@@H]2O[C@H](COP(=O)(O)OP(=O)(O)OC[C@H]3O[C@@H](n4cnc5c(N)ncnc54)[C@H](O)[C@@H]3O)[C@@H](O)[C@H]2O)C=CC1 [NADH] |  |  | Kcat [2]: (11.70)* s^−1; Km [2]: 92 µM; Vmax [2]: (9.33)* nmol^−1 · μg^−1 · min^−1; Km ([3]; read-out: Km): 734 µM; Vmax [3]: 6.29 nmol⁻¹ µg⁻¹ min⁻¹ |
| O=Cc1cc([N+](=O)[O-])no1 [NSC626433] | 265 µM | significant (P<0.05) inhibitory effect |  |
| CN(C)C(=S)SSC(=S)N(C)C [NSC1771] |  | significant (P<0.05) inhibitory effect | IC50 (HCT-8 cells; [4]): 110 µM |
| N#CCCN(CCC#N)Cc1cc(O)c(CN(CCC#N)CCC#N)cc1O [NSC70925] | 142 µM | significant (P<0.05) inhibitory effect |  |
| O=[N+]([O-])c1ccc2c(N=Nc3c(O)ccc4ccccc34)c(O)cc(S(=O)(=O)[O-])c2c1.[Na+] [NSC73413] | 220 µM | significant (P<0.05) inhibitory effect |  |
| O=C([CH-]C(=O)C(F)(F)F)c1ccccc1.O=C([CH-]C(=O)C(F)(F)F)c1ccccc1.O=C([CH-]C(=O)C(F)(F)F)c1ccccc1.O=C([CH-]C(=O)C(F)(F)F)c1ccccc1.[Eu+3].c1ccncc1 [NSC253995] | 83 µM | significant (P<0.05) inhibitory effect |  |
| O=S(=O)([O-])c1cc(N=Nc2cc(S(=O)(=O)[O-])c3ccccc3c2O)ccc1/C=C/c1ccc(N=Nc2cc(S(=O)(=O)[O-])c3ccccc3c2O)cc1S(=O)(=O)[O-].[Na+].[Na+].[Na+].[Na+] [NSC34931] | 71.1 µM | significant (P<0.05) inhibitory effect |  |
| CCOC(=O)Cc1c(C)c2cc(C(=O)c3ccccc3)c(O)cc2oc1=O [NSC115538] | 158 µM |  |  |
| O=c1oc2cc(O)ccc2c2oc3cc(O)ccc3c12 [NSC22842] | 83.5 µM | significant (P<0.05) inhibitory effect |  |
| COc1ccc(CCN(C)CCCC(C#N)(c2ccc(OC)c(OC)c2)C(C)C)cc1OC.Cl (centres unmarked) [NSC657799] |  | significant (P<0.05) inhibitory effect |  |
